Several values for one entry are separate records, joined by “and”; a condition that tells them apart may be missing. Equal values may be shown once.
Legend:
[1] = target: T1, thrombin receptor (PAR-1) (Homo sapiens, UniProt P25116); test: FLIPR-based calcium-flux assay with human smooth muscle cells (Har peptide agonist); format: cell-based; details: HSMC; 30 nM Har (PAR1) peptide agonist; 80-min drug incubation; multiple values = individual measurements
T1 construct: Human aortic smooth muscle cells (HSMC) were purchased from Cascade Biologics; host or cells: human aortic smooth muscle cells (HSMC)
T1 sequence (P25116 22-425): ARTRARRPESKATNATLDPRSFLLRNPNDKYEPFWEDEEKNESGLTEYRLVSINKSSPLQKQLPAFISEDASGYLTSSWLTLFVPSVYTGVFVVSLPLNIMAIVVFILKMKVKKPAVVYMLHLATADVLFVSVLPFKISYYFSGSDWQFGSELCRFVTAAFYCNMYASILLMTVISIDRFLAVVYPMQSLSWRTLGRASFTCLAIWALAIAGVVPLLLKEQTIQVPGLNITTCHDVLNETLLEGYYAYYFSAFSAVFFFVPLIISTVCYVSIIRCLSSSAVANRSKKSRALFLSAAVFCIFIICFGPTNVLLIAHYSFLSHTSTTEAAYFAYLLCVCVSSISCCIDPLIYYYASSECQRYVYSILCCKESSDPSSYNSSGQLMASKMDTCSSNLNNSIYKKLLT
Experimental: Human aortic smooth muscle cells (HSMC) were purchased from Cascade Biologics (Portland, Oreg.) and cultured in M-231 containing smooth muscle cell growth supplement and 1× Antibiotic-Antimycotic.
To determine agonist concentration for compound testing: On the day prior to the assay, 100 μL of cells (2×10^5/mL) were seeded in clear, flat-bottom black-wall, tissue culture treated polystyrene 96-well plates and incubated at 37° C., 5% CO2. On the day of the assay, 50 μL of complete dye loading solution (FLIPR Calcium 3 Kit, Molecular Devices) was added to each well containing 100 μL of culture media. The cells were incubated for 30-45 min at 37° C., in 5% CO2 before initiating the assay on the FLIPR. The agonist effect of PAR1 peptide (S-(p-F-Phe)-Har-L-Har-KY-NH2; Har=homoarginine; referred to herein as “Har” peptide) was tested and the EC50 was determined. The EC60-70 dose was used (30 nM) for compound testing.
Compound testing: On the day prior to the assay, 90 μL of cells (2.2×10^5/mL) were seeded in clear, flat-bottom black-wall, tissue culture treated polystyrene 96-well plates and incubated at 37° C., 5% CO2. On the day of the assay, the test compounds were prepared at 10× in 3% DMSO Hanks buffer and 10 μL was added to each well (final DMSO concentration of 0.3%). The cells were incubated 20 min at 37° C., 5% CO2. Culture medium containing testing compounds was dumped and the cells were washed four times with DPBS containing 0.1% of BSA and re-fed with 80 μL of growth medium. 70 μL of BD (fluorescent) dye was loaded to the cells and incubated 45 min at 37° C. incubator. The plates were equilibrated to room temperature for 15 min. 4× PAR1 peptide (30 nM final concentration) agonist plate and the cell plate were placed in FLIPR's assay chamber. 50 μL agonist was added to the cells and data was recorded for 5 min. Raw fluorescence data was exported for each well and tabulated versus time within an ASCII file. Data was then imported into Excel® and the peak response over basal level was determined. The percent inhibition for each test compound was calculated by the changes of fluorescent density as a % inhibition of the control Har peptide response to obtain an IC50.
Representative compounds of the present invention were tested according to the procedure described in Biological Example 1 above, with results in Table 8 below. In Table 8 below, where multiple values are listed for a particular compound, said numbers represent individual measurements (tests) for said compound.

washed platelets [2] = test: Har peptide-induced platelet aggregation in washed platelets; format: cell-based; details: Homo sapiens
Experimental: (§1) Platelet aggregation studies were performed according to the method of Bednar et al. (Bednar, B., Condra, C., Gould, R. J., and Connolly, T. M., Thromb. Res., 77:453-463 (1995)). Platelet-rich plasma (PRP) concentrates prepared from healthy volunteers who were aspirin free for at least 7 days by venipuncture using ACD-A as anticoagulant was purchased from Biological Specialties, Inc. (Colmar, Pa.). PRP was centrifuged at 730 g for 15 min. The platelet pellet was washed twice in CGS buffer (13 mM sodium citrate, 30 mM glucose, 120 mM NaCl, pH 6.5) containing 1 U/ml apyrase (grade V, Sigma-Aldrich, St. Louis, Mo.), 1 mM EGTA, and re-suspended in Tyrode's buffer (140 mM NaCl, 2.7 mM KCl, 12 mM NaHCO3, 0.76 mM Na2HPO4, 5.5 mM dextrose, 5.0 mM HEPES, 0.2% BSA, pH 7.4). The platelets were diluted to 3×10^8 platelets/ml and kept >45 min at 37° C. before use. 105 μl of washed platelets, 2 mM CaCl2 and […] of fibrinogen (for PAR-1 peptide-induced platelet aggregation only) were added to a 96-well microliter plate. Platelet aggregation was initiated by the addition of serial concentrations of Har peptide or thrombin (Alpha; American Diagnostica, Cat. # 470HT, 2,500 NIH Units/mg). Buffer was added to one set of control wells. The assay plate was stirred constantly and intermittently placed in a microplate reader (Softmax, Molecular Devices, Menlo Park, Calif.) to read optical density (650 nm) at 0 and 5 minutes after the addition of the compound solutions. Aggregation was calculated as the decrease in optical density between the time 0- and 5-min measurements and expressed as % of aggregation.
(§2) For the inhibition assay, platelet aggregation measurements were conducted as described, with the additional step of test compound addition. Compounds were prepared in 100% DMSO and stored. On the day of the experiment, the compounds were diluted in the Tyrode's buffer containing 3% of DMSO as a 10× working solution. 15 μl of test compound solutions were added to 105 μl of platelets 5 min prior to CaCl2 and fibrinogen additions. Platelet aggregation was initiated by the addition of agonist shown to achieve 60-70% aggregation. Antagonist potency was estimated as a % inhibition of the control Har peptide or thrombin response to obtain an IC50.
(§3) Representative compounds of the present invention were tested according to the procedure described in Biological Example 2 above, with results in Table 9 below. In Table 9 where multiple values are listed for a particular compound, said numbers represent individual measurements (tests) for said compound.

washed platelets [3] = test: Thrombin-induced platelet aggregation in washed platelets; format: cell-based, human; details: Homo sapiens, Platelet
Experimental: as §1, §2, §3

[4] = test system: platelets in platelet-rich plasma; test: Har peptide-induced platelet aggregation in platelet-rich plasma; format: cell-based, human; details: for IC50: multiple values = individual measurements; for inhibition at 10 µM: 10 μM compound
Experimental: (§4) The procedure for this assay is similar to that described in Biological Example 2, above. Briefly, platelet aggregation studies were performed according to the method of Bednar et al. (Bednar, B., Condra, C., Gould, R. J., and Connolly, T. M., Thromb. Res., 77:453-463 (1995)). Platelet-rich plasma (PRP) concentrates prepared from healthy volunteers who were aspirin free for at least 7 days by venipuncture using EDTA as anticoagulant was purchased from Biological Specialties, Inc. (Colmar, Pa.). PPP (platelet-poor-plasma) was obtained by centrifugation of PRP at Max (3,000 rpms) for 15 min at room temperature. PRP was diluted to yield platelet count of 300×10^3 platelets/μL with PPP. For thrombin induced platelet aggregation: 118 μL of 500 mM GPRP-NH2 was added to 12 mL of 300×10^3 platelets before using (to clean the fibrinogen in the plasma.) GPRP was added just before the experiment. 15 μL of test compound solutions were added to 120 μL of platelets 5 min prior the agonist additions. Platelet aggregation was initiated by the addition of agonist shown to achieve 60-70% aggregation. Antagonist potency was estimated as a % inhibition of the control Har peptide or thrombin response to obtain an IC50.
(§5) Where multiple values are listed for a particular compound, said numbers represent individual measurements (tests) for said compound.

[5] = test system: platelets in platelet-rich plasma; test: Thrombin-induced platelet aggregation in platelet-rich plasma; format: cell-based, human; details: for IC50: multiple values = individual measurements; for inhibition at 10 µM: 10 μM compound
Experimental: as §4, §5

COc1c(N2CCOCC2)cc(C(=O)CN2Cc3cc4c(cc3C2=N)OCc2ncccc2CO4)cc1C(C)(C)C [Compound 52]
IC50 [1]: 0.025 µM | IC50 (washed platelets [2]): 0.172 µM | IC50 (washed platelets [3]): 0.282 µM

CC(C)(C)c1cc(C(=O)CN2Cc3cc4c(cc3C2=N)OCc2cccnc2CO4)ccc1O [Compound 83]
IC50 [1]: 0.24 µM and 0.35 µM | IC50 [4]: 840 nM and 1750 nM | IC50 ([5]; Homo sapiens, Platelet): > 10000 nM | IC50 [5]: > 10000 nM

CC(C)(C)c1cc(C(=O)CN2Cc3cc4c(cc3C2=N)OCc2cc([N+](=O)[O-])ccc2CO4)cc(C(C)(C)C)c1O [Compound 84]
IC50 [1]: 0.029 µM and 0.047 µM and 0.048 µM and 0.011 µM | IC50 ([4]; Homo sapiens, Platelet): 2470 nM | IC50 ([5]; Homo sapiens, Platelet): 2510 nM

CC(C)(C)c1cc(C(=O)CN2Cc3cc4c(cc3C2=N)OCc2c(F)ccc(F)c2CO4)cc(C(C)(C)C)c1O [Compound 87]
IC50 [1]: 0.043 µM and 0.02 µM | IC50 ([4]; Homo sapiens, Platelet): 7380 nM | IC50 [4]: > 10000 nM | IC50 ([5]; Homo sapiens, Platelet): > 10000 nM | IC50 [5]: > 10000 nM

COc1c(N2CCOCC2)cc(C(=O)CN2Cc3cc4c(cc3C2=N)OCc2c(F)ccc(F)c2CO4)cc1C(C)(C)C [Compound 88]
IC50 [1]: 0.091 µM and 0.024 µM | IC50 ([4]; Homo sapiens, Platelet): 1630 nM | IC50 [4]: 1210 nM | IC50 ([5]; Homo sapiens, Platelet): 3550 nM | IC50 [5]: 2660 nM

COc1c(N2CCOCC2)cc(C(=O)CN2Cc3cc4c(cc3C2=N)OCc2cc(F)c(F)cc2CO4)cc1C(C)(C)C [Compound 89]
IC50 [1]: 0.29 µM and 0.13 µM | IC50 ([4]; Homo sapiens, Platelet): 1280 nM | IC50 [4]: 2310 nM | IC50 ([5]; Homo sapiens, Platelet): 4880 nM | IC50 [5]: 4610 nM and 6020 nM

COc1c(N2CCOCC2)cc(C(=O)CN2Cc3cc4c(cc3C2=N)OCC(F)(F)C(F)(F)CO4)cc1C(C)(C)C [Compound 90, 1-(3-tert-butyl-4-methoxy-5-morpholinophenyl)-2-(3,3,4,4-tetrafluoro-8-imino-4,5-dihydro-2H-[1,4]-dioxocino[2,3-f]isoindol-9(3H,8H,10H)-yl)ethanone]
IC50 [1]: 0.68 µM and 0.2 µM and 0.57 µM | IC50 ([4]; Homo sapiens, Platelet): 2560 nM | IC50 [4]: 4450 nM | inhibition at 10 µM ([5]; Homo sapiens): 30% | IC50 ([5]; Homo sapiens, Platelet): > 10000 nM

CC(C)(C)c1cc(C(=O)CN2Cc3cc4c(cc3C2=N)OCC(F)(F)C(F)(F)CO4)cc(C(C)(C)C)c1O [Compound 91]
IC50 [1]: 0.39 µM and 0.07 µM and 0.19 µM | inhibition at 10 µM ([4]; Homo sapiens): 26% | IC50 ([4]; Homo sapiens, Platelet): 12900 nM | IC50 ([5]; Homo sapiens, Platelet): > 10000 nM | IC50 [5]: > 10000 nM

COc1c(N2CCOCC2)cc(C(=O)CN2Cc3cc4c(cc3C2=N)OCC(F)(F)CO4)cc1C(C)(C)C [Compound 92]
IC50 [1]: 0.53 µM and 0.36 µM | inhibition at 10 µM ([4]; Homo sapiens): 24% | IC50 ([5]; Homo sapiens, Platelet): > 10000 nM | IC50 [5]: > 10000 nM

CC(C)(C)c1cc(C(=O)CN2Cc3cc4c(cc3C2=N)OCC(F)(F)CO4)cc(C(C)(C)C)c1O [Compound 93]
IC50 [1]: 0.27 µM and 0.13 µM | IC50 ([4]; Homo sapiens, Platelet): 2080 nM | IC50 [4]: 3800 nM | IC50 ([5]; Homo sapiens, Platelet): > 10000 nM | IC50 [5]: > 10000 nM

CC(C)(C)c1cc(C(=O)CN2Cc3cc4c(c(F)c3C2=N)OCc2ccccc2CO4)cc(C(C)(C)C)c1O [Compound 96]
IC50 [1]: 0.031 µM and 0.015 µM | IC50 ([4]; Homo sapiens, Platelet): 1570 nM | IC50 [4]: 2300 nM | IC50 ([5]; Homo sapiens, Platelet): 3230 nM | IC50 [5]: 3250 nM

COc1c(N2CCOCC2)cc(C(=O)CN2Cc3cc4c(cc3C2=N)OC/C=C\CO4)cc1C(C)(C)C [Compound 97]
IC50 [1]: 0.05 µM and 0.1 µM | IC50 ([4]; Homo sapiens, Platelet): 1300 nM | IC50 ([5]; Homo sapiens, Platelet): 2190 nM

COc1c(N2CCOCC2)cc(C(=O)CN2Cc3cc4c(cc3C2=N)OCc2cc(C)c(C)cc2CO4)cc1C(C)(C)C [Compound 98]
IC50 [1]: 0.27 µM and > 1 µM | IC50 ([4]; Homo sapiens, Platelet): > 10000 nM | IC50 ([5]; Homo sapiens, Platelet): > 10000 nM

Cc1cc2c(cc1C)COc1cc3c(cc1OC2)CN(CC(=O)c1cc(C(C)(C)C)c(O)c(C(C)(C)C)c1)C3=N [Compound 99]
IC50 [1]: 0.092 µM and 0.22 µM | IC50 ([4]; Homo sapiens, Platelet): > 10000 nM | inhibition at 10 µM ([5]; Homo sapiens): 23%

CC(C)(C)c1cc(C(=O)CN2Cc3cc4c(cc3C2=N)OC/C=C\CO4)cc(C(C)(C)C)c1O [Compound 100, (Z)-1-(3,5-di-tert-butyl-4-hydroxyphenyl)-2-(8-imino-2H-[1,4]-dioxocino[2,3-f]isoindol-9(5H,8H,10H)-yl)ethanone]
IC50 [1]: 0.022 µM and 0.027 µM | IC50 ([4]; Homo sapiens, Platelet): 1610 nM | IC50 ([5]; Homo sapiens, Platelet): 1920 nM
